Data reported in US11708318B2, “Polymorphic forms of RAD1901-2HCL” (Radius Pharmaceuticals, Inc., priority 2017, dated 2023).
Entries after “also recorded” stand apart in the source; their conditions may differ.

Key:
Format in all cases: physicochemical
[1] = Gravimetric Vapour Sorption (GVS), with XRPD of the recovered sample; details: for Hygroscopicity (GVS): 0-90% RH
Protocol: Sorption isotherms were obtained using a SMS DVS Intrinsic moisture sorption analyzer, controlled by DVS Intrinsic Control software v1.0.1.2 (or v 1.0.1.3). The sample temperature was maintained at 25° C. by the instrument controls. The humidity was controlled by mixing streams of dry and wet nitrogen, with a total flow rate of 200 ml/min. The relative humidity was measured by a calibrated Rotronic probe (dynamic range of 1.0-100% RH), located near the sample. The weight change, (mass relaxation) of the sample as a function of % RH was constantly monitored by the microbalance (accuracy ±0.005 mg).
A sample (e.g., 20 mg) was placed in a tared mesh stainless steel basket under ambient conditions. The sample was loaded and unloaded at 40% RH and 25° C. (typical room conditions). A moisture sorption isotherm was performed as outlined below (2 scans giving 1 complete cycle). Standard isotherms were performed at 25° C. at 10% RH intervals over a 0-90% RH range. Data analysis was carried out using Microsoft Excel using DVS Analysis Suite v6.2 (or 6.1 or 6.0).
In a cycle of 2 scans, the first scan was performed with adsorption of 40-90% RH, followed by a second scan with desorption of 90-0% RH and adsorption of 0-40% RH, with intervals of 10% RH, at 25° C. with stability dm/dt of 0.002% ° C./min. The sorption time was 6 hr time out.
The sample was recovered after completion of the isotherm and re-analyzed by XRPD. Custom moisture sorption methods were also performed at 25° C. at fixed % RH intervals over a 0-95% RH range, with the purpose to fully understand the sorption/desorption behavior of the compound under elevated conditions.
To further explore the humidity behavior of Sample 1 (Form 1) upon exposure to high RH (>90%), custom GVS experiments were designed and carried out. Initially, the sample was treated by holding at 90 and then 95% RH for ˜12 hours to see if hydrate formation could be observed (HighRH method of Steps 1 and 2 of Table 2, FIGS. 6C-6D).
To test the stability of the hydrated state, GVS method HighRH_Desorp_3 was designed with a desorption step and subsequent adsorption (see Table 2 with steps 1-4, FIGS. 6E-6F).
Finally, to ensure complete conversion to the anhydrous and hydrated forms, a GVS experiment was designed to increase both the length of the desorption step at 0% RH, and the adsorption step at 95% RH, respectively (Table 3). Based on the weight stabilization observed in the kinetic plots for Sample 1 in HighRH and HighRH_Desorp_3 methods discussed above (FIGS. 6D and 6F), a holding time of 800 mins at 0% RH and 1600 mins at 95% RH were chosen. A double cycle was also recorded for this experiment to observe whether the sample would return to Form 1 or form a mixed anhydrous/hydrated species (see Table 3, FIGS. 6G-6H).

[2] = Storage at elevated temperature/humidity, analysed by XRPD
Protocol: Samples 1 and 2 were characterized by XRPD at various conditions. XRPD patterns were collected for the samples at ambient condition as the samples were provided; at variable temperature (VT-XRPD); at variable humidity (VH-XRPD); after the samples were exposed to 40° C./75% RH for 1 week and 25° C./97% RH for 1 week, respectively; and after a GVS measurement wherein the samples were exposed to 0-90% RH. Samples 1 and 2 were also characterized by ^1H NMR, TGA, DSC, KF, IC, GVS (exposed to 0-90% RH), PLM, SEM, and HPLC (Table 5).

[3] = Solubility assessment of amorphous RAD1901-2HCl; details: thermodynamic from solid, read-out: Solubility assessment 10 vol.
Protocol: In a scale-up preparation of amorphous RAD1901-2HCl, RAD1901-2HCl (600 mg) was dissolved in water (20 vol., 12 mL) and filtered to remove any remaining solid particles. The solution was then aliquoted into 24 HPLC vials, frozen in a dry ice/acetone bath and the solvent removed by lyophilisation. Solids produced by lyophilization were used directly in solubility assessment and polymorph screens in Example 4.
Amorphous RAD1901-2HCl prepared as described in Example 3B was used directly in solubility assessment and polymorph screens (Table 15). XRPD patterns were further obtained for amorphous RAD1901-2HCl prepared using other solvents.

[4] = Solubility assessment of amorphous RAD1901-2HCl in water/organic solvent system; details: organic solvent or mixture, thermodynamic from solid
Protocol: Samples of amorphous RAD1901-2HCl were prepared in water/organic solvent mixtures containing varying ratios of water. The organic solvents chosen were anhydrous ethanol, methanol and ethyl acetate. The percentage of water in the water/organic solvent mixtures was varied between 0 and 10% (v/v) in order to place a limit on the level of water that can be present during production processes, and to retain formation of Form 1. Above this water activity limit, the hydrated Form 3 will be obtained, as shown by GVS experiments (see FIGS. 6G and 20A). It should be noted that samples prepared in ethyl acetate, were either slurried in anhydrous ethyl acetate, or in water saturated ethyl acetate.
The water activity values for each water/organic solvent mixture are provided in Table 16, and were calculated using the reference given in Bell, Halling, Enzyme Microbiol. Technol. 1997, 20, 471, incorporated herein by reference.

SMILES: CCNCCc1ccc(CN(CC)c2cc(OC)ccc2[C@@H]2CCc3cc(O)ccc3C2)cc1.Cl.Cl [Form 1]
- Hygroscopicity (GVS) [1]: relatively non-hygroscopic; also recorded: low hygroscopicity
- Solid form on exposure to high RH (>90%) by GVS ([1]; above 90% RH): irreversibly converted to the hydrate Form 3; also recorded: started converting to the hydrate Form 3
- XRPD post GVS (uptake 0-90% RH) ([1]; after exposure to 0-90% RH): stable; also recorded: No changes
- Hygroscopicity compared with Form 2 ([1]; than Form 2): lower hygroscopicity
- XRPD after storage at 25° C./97% RH for 1 week ([2]; 25° C./97% RH, 1 week): converted to Form 3; also recorded: conversion towards a hydrated state Form 3
- XRPD after storage at 40° C./75% RH for 1 week ([2]; 40° C./75% RH, 1 week): stable
- Solid form on prolonged exposure to high RH (>90%) ([2]; high RH (>90%), e.g. for 7 days): converted to the hydrate Form 3
- Stability of the polymorphic form (overall characterization) ([2]; relative to heat and/or humidity): stable

SMILES: CCNCCc1ccc(CN(CC)c2cc(OC)ccc2[C@@H]2CCc3cc(O)ccc3C2)cc1.Cl.Cl [amorphous RAD1901-2HCl]
- solubility ([3]; organic solvent or mixture, 1,2-dimethoxyethane, sample ID B16): < 100 mg/mL
- solubility ([3]; organic solvent or mixture, 1,4-Dioxane, sample ID B14): < 100 mg/mL
- solubility ([3]; organic solvent or mixture, 1-propanol, sample ID B8): < 100 mg/mL
- solubility ([3]; organic solvent or mixture, 2-propanol, sample ID B6): < 100 mg/mL
- solubility ([3]; organic solvent or mixture, 10% water/EtOH, sample ID B22): > 100 mg/mL
- solubility ([3]; organic solvent or mixture, 10% water/IPA, sample ID B23): < 100 mg/mL
- solubility ([3]; organic solvent or mixture, 10% water/THF, sample ID B24): < 100 mg/mL
- solubility ([3]; organic solvent or mixture, Acetone, sample ID B9): < 100 mg/mL
- solubility ([3]; organic solvent or mixture, Acetonitrile, sample ID B20): < 100 mg/mL
- solubility ([3]; organic solvent or mixture, Dichloromethane, sample ID B18): < 100 mg/mL
- solubility ([3]; organic solvent or mixture, Dimethyl sulfoxide, sample ID B11): > 100 mg/mL
- solubility ([3]; organic solvent or mixture, Ethanol, sample ID B10): < 100 mg/mL
- solubility ([3]; organic solvent or mixture, Ethyl acetate, sample ID B3): < 100 mg/mL
- solubility ([3]; organic solvent or mixture, Isopropyl acetate, sample ID B4): < 100 mg/mL
- solubility ([3]; organic solvent or mixture, MEK, sample ID B7): < 100 mg/mL
- solubility ([3]; organic solvent or mixture, MIBK, sample ID B5): < 100 mg/mL
- solubility ([3]; organic solvent or mixture, Methanol, sample ID B19): < 100 mg/mL
- solubility ([3]; organic solvent or mixture, Nitromethane, sample ID B21): < 100 mg/mL
- solubility ([3]; organic solvent or mixture, Propyl acetate, sample ID B2): < 100 mg/mL
- solubility ([3]; organic solvent or mixture, TBME, sample ID B13): < 100 mg/mL
- solubility ([3]; organic solvent or mixture, Tetrahydrofuran, sample ID B17): < 100 mg/mL
- solubility ([3]; organic solvent or mixture, Toluene, sample ID B15): < 100 mg/mL
- solubility ([3]; organic solvent or mixture, n-Heptane, sample ID B1): < 100 mg/mL
- solubility ([3]; Water, sample ID B12): > 100 mg/mL
- solubility ([4]; EtOH/H2O (90:10), EtOH/H2O (90:10), sample ID C1, read-out: Solubility assessment 10 vol.): > 100 mg/mL
- solubility ([4]; EtOH/H2O (95:5), EtOH/H2O (95:5), sample ID C2, read-out: Solubility assessment 10 vol.): < 100 mg/mL
- solubility ([4]; EtOH/H2O (98:2), EtOH/H2O (98:2), sample ID C3, read-out: Solubility assessment 10 vol.): < 100 mg/mL
- solubility ([4]; EtOH/H2O (99:1), EtOH/H2O (99:1), sample ID C4, read-out: Solubility assessment 10 vol.): < 100 mg/mL
- solubility ([4]; MeOH/H2O (90:10), MeOH/H2O (90:10), sample ID C5, read-out: Solubility assessment 10 vol.): > 100 mg/mL
- solubility ([4]; MeOH/H2O (95:5), MeOH/H2O (95:5), sample ID C6, read-out: Solubility assessment 10 vol.): > 100 mg/mL
- solubility ([4]; MeOH/H2O (98:2), MeOH/H2O (98:2), sample ID C7, read-out: Solubility assessment 10 vol.): < 100 mg/mL
- solubility ([4]; MeOH/H2O (99:1), MeOH/H2O (99:1), sample ID C8, read-out: Solubility assessment 10 vol.): < 100 mg/mL
- solubility ([4]; anhydrous ethyl acetate, Ethyl acetate (anhydrous), sample ID C9, read-out: Solubility assessment 10 vol.): < 100 mg/mL
- solubility ([4]; anhydrous ethyl acetate, Ethyl acetate (anhydrous), sample ID C9, read-out: Solubility assessment 20 vol): < 50 mg/mL
- solubility ([4]; anhydrous ethyl acetate, Ethyl acetate (anhydrous), sample ID C9, read-out: Solubility assessment 30 vol): < 33.3 mg/mL
- solubility ([4]; water-saturated ethyl acetate, Water-saturated ethyl acetate, sample ID C10, read-out: Solubility assessment 10 vol.): < 100 mg/mL
- solubility ([4]; water-saturated ethyl acetate, Water-saturated ethyl acetate, sample ID C10, read-out: Solubility assessment 20 vol): < 50 mg/mL
- solubility ([4]; water-saturated ethyl acetate, Water-saturated ethyl acetate, sample ID C10, read-out: Solubility assessment 30 vol): < 33.3 mg/mL

SMILES: CCNCCc1ccc(CN(CC)c2cc(OC)ccc2[C@@H]2CCc3cc(O)ccc3C2)cc1.Cl.Cl [Form 3]
- Solid form after exposure to <40% RH for 8 hr ([2]; <40% RH, 8 hr): Form 2

SMILES: CCNCCc1ccc(CN(CC)c2cc(OC)ccc2[C@@H]2CCc3cc(O)ccc3C2)cc1.Cl.Cl [Form 2]
- Hygroscopicity (GVS) [1]: hygroscopic
- Solid form after exposure to >40% RH for 7 days ([2]; >40% RH, 7 days): Form 3
